Reference: patent US7851467B2, “Carbamate compounds as 5-HT4 receptor agonists” (Theravance, Inc., priority 2005, dated 2010)

Target: T1, human 5-HT4(c) receptor (Homo sapiens, UniProt Q13639)
T1 construct: expressed in transfected cells; host or cells: HEK-293
Assay: Radioligand binding assay on 5-HT4(c) human receptors ([3H]-GR113808 displacement)
Conditions: HEK-293 membranes, [3H]-GR113808 at 0.15 nM, read-out: pKi value (converted)
Description: Assay 1: Radioligand Binding Assay on 5-HT4(C) Human Receptors a. Membrane Preparation 5-HT4(c)
HEK-293 (human embryonic kidney) cells stably-transfected with human 5-HT4(C) receptor cDNA (Bmax=˜6.0 pmol/mg protein, as determined using [^3H]-GR113808 membrane radioligand binding assay) were grown in T-225 flasks in Dulbecco's Modified Eagles Medium (DMEM) containing 4,500 mg/L D-glucose and pyridoxine hydrochloride (GIBCO-Invitrogen Corp., Carlsbad Calif.: Cat #11965) supplemented with 10% fetal bovine serum (FBS) (GIBCO-Invitrogen Corp.: Cat #10437), 2 mM L-glutamine and (100 units) penicillin-(100 μg) streptomycin/ml (GIBCO-Invitrogen Corp.: Cat #15140) in a 5% CO2, humidified incubator at 37° C. […]
For the membrane preparation, cell pellets were resuspended in ice-cold 50 mM 4-(2-hydroxyethyl)-1-piperazineethanesulphonic acid (HEPES), pH 7.4 (membrane preparation buffer) (40 mL/total cell yield from 30-40 T225 flasks) and homogenized using a polytron disrupter (setting 19, 2×10 s) on ice. […] Protein concentration of the membrane suspension was determined by the method of Bradford (Bradford, 1976). […]
Test compounds were received as 10 mM stock solutions in DMSO and diluted to 400 μM into 50 mM HEPES pH 7.4 at 25° C., containing 0.1% BSA, and serial dilutions (1:5) then made in the same buffer. Non-specific binding was determined in the presence of 1 μM unlabeled GR113808. […]

T1 sequence (Q13639 1-380 isoform Q13639-4): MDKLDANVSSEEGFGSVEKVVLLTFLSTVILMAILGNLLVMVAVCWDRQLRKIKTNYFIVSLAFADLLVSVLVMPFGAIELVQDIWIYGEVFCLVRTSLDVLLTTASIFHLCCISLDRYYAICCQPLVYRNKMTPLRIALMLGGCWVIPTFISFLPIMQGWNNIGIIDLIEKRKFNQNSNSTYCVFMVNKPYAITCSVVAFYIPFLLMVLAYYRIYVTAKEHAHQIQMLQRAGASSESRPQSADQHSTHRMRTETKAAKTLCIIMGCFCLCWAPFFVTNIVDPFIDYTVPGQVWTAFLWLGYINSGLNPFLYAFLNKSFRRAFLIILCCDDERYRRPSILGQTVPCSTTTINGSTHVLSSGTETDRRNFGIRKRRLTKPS

## CC(C)n1c(=O)n(C(=O)N[C@H]2C[C@H]3CC[C@@H](C2)N3CCCOC(=O)N2CCN(C(=O)C3CCCO3)CC2)c2ccccc21 (stereo partly drawn) [Example 1, 4-(tetrahydrofuran-2-carbonyl)piperazine-1-carboxylic acid 3-{(1S,3R,5R)-3-[(3-isopropyl-2-oxo-2,3-dihydrobenzoimidazole-1-carbonyl)amino]-8-aza-bicyclo[3.2.1]oct-8-yl}propyl ester]
  Ki: 12.6 nM
